Among the data in patent US8217043B2, “Compounds and methods for their use” (Fibrogen, Inc., priority 2008, dated 2012) are inhibition values, retold here.

The first assay deals with T1, HIF-PH2 (EGLN1) (Homo sapiens, UniProt Q9GZT9).
T1 construct: made in house; host or cells: insect Hi5 cells
T1 sequence (Q9GZT9 whole entry, species assumed): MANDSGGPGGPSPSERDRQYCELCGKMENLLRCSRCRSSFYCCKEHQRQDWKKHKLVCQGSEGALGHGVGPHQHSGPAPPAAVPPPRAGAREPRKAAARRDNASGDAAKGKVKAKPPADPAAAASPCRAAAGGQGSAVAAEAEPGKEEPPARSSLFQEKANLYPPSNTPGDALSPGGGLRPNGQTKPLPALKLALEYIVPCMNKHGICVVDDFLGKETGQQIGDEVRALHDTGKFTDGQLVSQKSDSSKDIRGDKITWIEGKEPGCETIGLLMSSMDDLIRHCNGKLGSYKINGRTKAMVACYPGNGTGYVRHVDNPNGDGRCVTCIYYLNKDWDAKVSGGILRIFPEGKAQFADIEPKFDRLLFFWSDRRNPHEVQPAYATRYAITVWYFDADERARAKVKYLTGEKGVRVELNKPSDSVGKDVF
Put plainly: HIF-PH assay (14CO2 capture, peptide-dependent turnover). It counts as biochemical. The settings on record: Concentration 50 μM. The text has this: Ketoglutaric acid α-[1-^14C]-sodium salt, alpha-ketoglutaric acid sodium salt, and HPLC purified peptide may be obtained from commercial sources, e.g., Perkin-Elmer (Wellesley Mass.), Sigma-Aldrich, and SynPep Corp. (Dublin Calif.), respectively. Peptides for use in the assay may be fragments of HIFα as described above or as disclosed in International Publication WO 2005/118836, incorporated by reference herein. HIF-PH, e.g., HIF-PH2 (EGLN1), can be expressed in, e.g., insect Hi5 cells, and partially purified, e.g., through a SP ion exchange chromatography column. Enzyme activity is determined by capturing ^14CO2 using an assay described by Kivirikko and Myllyla (1982, Methods Enzymol. 82:245-304). Assay reactions contain 50 mM HEPES (pH 7.4), 100 μM α-ketoglutaric acid sodium salt, 0.30 μCi/mL ketoglutaric acid α-[1-^14C]-sodium salt, 40 μM FeSO4, 1 mM ascorbate, 1541.8 units/mL Catalase, with or without 50 μM peptide substrate and various concentrations of compound of the invention. Reactions are initiated by addition of HIF-PH enzyme.
The peptide-dependent percent turnover is calculated by subtracting percent turnover in the absence of peptide from percent turnover in the presence of substrate peptide. Percent inhibition and IC50 are calculated using peptide-dependent percent turnover at given inhibitor concentrations. Calculation of IC50 values for each inhibitor is conducted using GraFit software (Erithacus Software Ltd., Surrey UK).
Representative compounds of the invention were analyzed using the HIF-PH assay described above. Table 1 presents enzyme inhibition data for exemplary compounds against HIF-PH2, a representative HIF prolyl hydroxylase. By inhibiting HIF prolyl hydroxylase, compounds of the invention stabilize HIFα, which then combines with HIFβ to form an active transcription factor that increases expression of various genes involved in numerous beneficial cellular processes.
As for `O=C(O)CNC(=O)c1c(O)c2cc3ccc(C(F)(F)F)cc3n2n(Cc2ccc(F)cc2)c1=O` [Example 43, {[4-(4-Fluoro-benzyl)-1-hydroxy-3-oxo-6-trifluoromethyl-3,4-dihydro-4,4a-diaza-fluorene-2-carbonyl]-amino}-acetic acid], the inhibition at 50 µM came to 99%.

Compound `C[C@H](NC(=O)c1c(O)c2cc3ccccc3n2n(Cc2ccc(F)cc2)c1=O)C(=O)O` [Example 19, 2-(S)-{[4-(4-Fluoro-benzyl)-1-hydroxy-3-oxo-3,4-dihydro-4,4a-diaza-fluorene-2-carbonyl]-amino}-propionic acid] returned an inhibition at 50 µM of 99%.

With `O=C(O)CNC(=O)c1c(O)c2cc(Cl)c(Cl)n2n(Cc2ccc(F)cc2)c1=O` [Example 42, {[6,7-Dichloro-1-(4-fluoro-benzyl)-4-hydroxy-2-oxo-1,2-dihydro-pyrrolo[1,2-b]pyridazine-3-carbonyl]-amino}-acetic acid], 50 µM produced 95% inhibition.

For `O=C(O)CNC(=O)c1c(O)c2cc(Cl)cn2n(Cc2ccccn2)c1=O` [Example 40, [(6-Chloro-4-hydroxy-2-oxo-1-pyridin-2-ylmethyl-1,2-dihydro-pyrrolo[1,2-b]pyridazine-3-carbonyl)-amino]-acetic acid], 50 µM produced 95% inhibition.

Compound `C[C@H](NC(=O)c1c(O)c2cccn2n(Cc2ccc(C(F)(F)F)cc2)c1=O)C(=O)O` [Example 24, 2-(S)-{[4-Hydroxy-2-oxo-1-(4-trifluoromethyl-benzyl)-1,2-dihydro-pyrrolo[1,2-b]pyridazine-3-carbonyl]-amino}-propionic acid] showed an inhibition at 50 µM of 98%.

As to `O=C(O)CNC(=O)c1c(O)c2cc3cc(F)ccc3n2n(Cc2ccc(F)cc2)c1=O` [Example 21, {[7-Fluoro-4-(4-fluoro-benzyl)-1-hydroxy-3-oxo-3,4-dihydro-4,4a-diaza-fluorene-2-carbonyl]-amino}-acetic acid], the inhibition at 50 µM was found to be 99%.

The compound `C[C@H](NC(=O)c1c(O)c2cc(Cl)cn2n(Cc2ccc(C(F)(F)F)cc2)c1=O)C(=O)O` [Example 23, 2-(S)-{[6-Chloro-4-hydroxy-2-oxo-1-(4-trifluoromethyl-benzyl)-1,2-dihydro-pyrrolo[1,2-b]pyridazine-3-carbonyl]-amino}-propionic acid] showed an inhibition at 50 µM of 98%.

As for `CCCCCCn1c(=O)c(C(=O)NCC(=O)O)c(O)c2cccn21` [Example 20, [(1-Hexyl-4-hydroxy-2-oxo-1,2-dihydro-pyrrolo[1,2-b]pyridazine-3-carbonyl)-amino]-acetic acid], the inhibition at 50 µM is 97%.

The assay is the same for the next values; noted with them: Concentration 67 μM.
As for `COc1ccc(Cn2c(=O)c(C(=O)NCC(=O)O)c(O)c3cc(Cl)cn32)cc1` [Example 31, {[6-Chloro-1-(4-methoxy-benzyl)-4-hydroxy-2-oxo-1,2-dihydro-pyrrolo[1,2-b]pyridazine-3-carbonyl]-amino}-acetic acid], the inhibition at 67 µM stood at 100%.

Consider `C[C@H](NC(=O)c1c(O)c2cc3ccc(C(F)(F)F)cc3n2n(Cc2ccc(F)cc2)c1=O)C(=O)O` [Example 44, 2-(S)-{[4-(4-Fluoro-benzyl)-1-hydroxy-3-oxo-6-trifluoromethyl-3,4-dihydro-4,4a-diaza-fluorene-2-carbonyl]-amino}-propionic acid], for which testing at 67 µM gave an inhibition of 89%.

`C[C@H](NC(=O)c1c(O)c2cc(Cl)cn2n(Cc2ccc(-c3ccccc3)cc2)c1=O)C(=O)O` [Example 35, 2-(S)-[(1-Biphenyl-4-ylmethyl-6-chloro-4-hydroxy-2-oxo-1,2-dihydro-pyrrolo[1,2-b]pyridazine-3-carbonyl)-amino]-propionic acid] showed an inhibition at 67 µM of 100%.

`O=C(O)CNC(=O)c1c(O)c2cc(Cl)cn2n(Cc2cccnc2)c1=O` [Example 38, [(6-Chloro-4-hydroxy-2-oxo-1-pyridin-3-ylmethyl-1,2-dihydro-pyrrolo[1,2-b]pyridazine-3-carbonyl)-amino]-acetic acid] gave an inhibition at 67 µM of 99%.

The same assay, now with this note: Concentration 125 μM.
On to `O=C(O)CNC(=O)c1c(O)c2cccn2n(Cc2c(F)cccc2F)c1=O` [Example 15, {[1-(2,6-Difluoro-benzyl)-4-hydroxy-2-oxo-1,2-dihydro-pyrrolo[1,2-b]pyridazine-3-carbonyl]-amino}-acetic acid], for which at 125 µM the inhibition was 94%.

On to `O=C(O)CNC(=O)c1c(O)c2cccn2n(Cc2cccc(F)c2)c1=O` [Example 14, {[1-(3-Fluoro-benzyl)-4-hydroxy-2-oxo-1,2-dihydro-pyrrolo[1,2-b]pyridazine-3-carbonyl]-amino}-acetic acid], for which the inhibition at 125 µM amounted to 98%.

The assay is the same for the next values; noted with them: Concentration 200 μM.
`O=C(O)CNC(=O)c1c(O)c2cccn2n(Cc2ccc(Cl)cc2)c1=O` [Example 11, {[1-(4-Chloro-benzyl)-4-hydroxy-2-oxo-1,2-dihydro-pyrrolo[1,2-b]pyridazine-3-carbonyl]-amino}-acetic acid] registered an inhibition at 200 µM of 100%.

`O=C(O)CNC(=O)c1c(O)c2cccn2n(Cc2ccc3ccccc3c2)c1=O` [Example 9, [(4-Hydroxy-1-naphthalen-2-ylmethyl-2-oxo-1,2-dihydro-pyrrolo[1,2-b]pyridazine-3-carbonyl)-amino]-acetic acid] registered an inhibition at 200 µM of 100%.

One may read the inhibition as the share of the control response that was lost under treatment. Read a low inhibition as a response near the control.
